Test results published in the supplement of paper PMC10307832.

Experiments:
Experiment in all cases: relative viability (nuclei count vs DMSO), 5 days (fraction); higher = more cells survive
Tipifarnib + Crizotinib = compound: Cn1cncc1[C@@](N)(c1ccc(Cl)cc1)c1ccc2c(c1)c(-c1cccc(Cl)c1)cc(=O)n2C [Tipifarnib] + C[C@@H](Oc1cc(-c2cnn(C3CCNCC3)c2)cnc1N)c1c(Cl)ccc(F)c1Cl [Crizotinib] (partner 1 µM)
Method in brief: (§1)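 Lung cancer cell lines, seeded in 1536-well plates, were treated the following day by pin tool with a single drug or with five library-drug doses (not always all listed) in √10 steps on top of a fixed anchor-drug dose. Cells were fixed and nuclei stained in one step after 5 days, and nuclei were counted. Relative viability is the nuclei count for treated wells divided by that for vehicle wells, reported as medians of duplicate plates.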

Tipifarnib + Phenformin = compound: Cn1cncc1[C@@](N)(c1ccc(Cl)cc1)c1ccc2c(c1)c(-c1cccc(Cl)c1)cc(=O)n2C [Tipifarnib] + N=C(N)NC(=N)NCCc1ccccc1 [Phenformin] (partner 250 µM)
Method in brief: as §1

Tipifarnib + OSI-027 = compound: Cn1cncc1[C@@](N)(c1ccc(Cl)cc1)c1ccc2c(c1)c(-c1cccc(Cl)c1)cc(=O)n2C [Tipifarnib] + COc1cccc2cc(-c3nc([C@H]4CC[C@H](C(=O)O)CC4)n4ncnc(N)c34)[nH]c12 [OSI-027] (partner 0.5 µM)
Method in brief: as §1

Tipifarnib + Trametinib = compound: Cn1cncc1[C@@](N)(c1ccc(Cl)cc1)c1ccc2c(c1)c(-c1cccc(Cl)c1)cc(=O)n2C [Tipifarnib] + CC(=O)Nc1cccc(-n2c(=O)n(C3CC3)c(=O)c3c(Nc4ccc(I)cc4F)n(C)c(=O)c(C)c32)c1 [Trametinib] (partner 0.02 µM)
Method in brief: as §1

Cell Line | relative viability (Tipifarnib + Crizotinib; first compound 0.01 µM) | relative viability (Tipifarnib + Crizotinib; first compound 0.03162 µM) | relative viability (Tipifarnib + Crizotinib; first compound 0.1 µM) | relative viability (Tipifarnib + Crizotinib; first compound 0.3162 µM) | relative viability (Tipifarnib + Crizotinib; first compound 1 µM) | relative viability (Tipifarnib + Phenformin; first compound 0.01 µM) | relative viability (Tipifarnib + Phenformin; first compound 0.03162 µM) | relative viability (Tipifarnib + Phenformin; first compound 0.1 µM) | relative viability (Tipifarnib + Phenformin; first compound 0.3162 µM) | relative viability (Tipifarnib + Phenformin; first compound 1 µM) | relative viability (Tipifarnib + OSI-027; first compound 0.01 µM) | relative viability (Tipifarnib + OSI-027; first compound 0.03162 µM) | relative viability (Tipifarnib + OSI-027; first compound 0.1 µM) | relative viability (Tipifarnib + OSI-027; first compound 0.3162 µM) | relative viability (Tipifarnib + OSI-027; first compound 1 µM) | relative viability (Tipifarnib + Trametinib; first compound 0.01 µM) | relative viability (Tipifarnib + Trametinib; first compound 0.03162 µM) | relative viability (Tipifarnib + Trametinib; first compound 0.1 µM) | relative viability (Tipifarnib + Trametinib; first compound 0.3162 µM) | relative viability (Tipifarnib + Trametinib; first compound 1 µM)
HCC-366 | 0.695 | 0.389 | 0.151 | 0.17 | 0.034 | 0.619 | 0.569 | 0.387 | 0.313 | 0.0592 | 1.01 | 0.778 | 0.265 | 0.18 | 0.0734 | 0.415 | 0.371 | 0.197 | 0.147 | 0.102
HCC-827 | 0.868 | 0.883 | 0.712 | 0.617 | 0.552 | 0.425 | 0.413 | 0.406 | 0.34 | 0.376 | 0.901 | 0.809 | 0.687 | 0.435 | 0.388 | 0.529 | 0.598 | 0.481 | 0.479 | 0.504
HOP-62 | 0.726 | 0.528 | 0.303 | 0.35 | 0.448 | 0.573 | 0.418 | 0.403 | 0.353 | 0.347 | 0.639 | 0.382 | 0.33 | 0.263 | 0.317 | 0.375 | 0.297 | 0.258 | 0.261 | 0.282
IA-LM | 0.533 | 0.548 | 0.291 | 0.272 | 0.263 |  |  |  |  |  |  |  |  |  |  |  |  |  |  | 
LC-2-ad | 0.399 | 0.391 | 0.382 | 0.349 | 0.35 | 0.566 | 0.532 | 0.498 | 0.568 | 0.372 | 0.765 | 0.755 | 0.522 | 0.499 | 0.438 | 0.938 | 0.661 | 0.669 | 0.561 | 0.532
LCLC-97TM1 | 0.329 | 0.295 | 0.244 | 0.227 | 0.15 | 0.423 | 0.382 | 0.446 | 0.355 | 0.231 | 0.402 | 0.409 | 0.358 | 0.286 | 0.22 | 0.202 | 0.209 | 0.171 | 0.17 | 0.157
LCLC-103H | 1.01 | 1.01 | 0.893 | 0.87 | 0.85 | 0.326 | 0.319 | 0.275 | 0.267 | 0.295 | 0.383 | 0.445 | 0.372 | 0.363 | 0.31 | 0.649 | 0.674 | 0.646 | 0.642 | 0.667
LK-2 | 0.231 | 0.217 | 0.238 | 0.209 | 0.222 | 0.471 | 0.11 | 0.428 | 0.248 | 0.184 | 0.183 | 0.193 | 0.195 | 0.165 | 0.164 | 0.613 | 0.971 | 0.766 | 0.559 | 0.597
LOU-NH91 | 0.741 | 0.752 | 0.695 | 0.619 | 0.646 | 0.652 | 0.589 | 0.688 | 0.569 | 0.414 | 0.698 | 0.589 | 0.5 | 0.485 | 0.467 | 0.825 | 0.747 | 0.73 | 0.69 | 0.723
LU99A | 0.5 | 0.407 | 0.353 | 0.337 | 0.34 | 0.918 | 0.623 | 0.515 | 0.404 | 0.359 | 0.242 | 0.229 | 0.224 | 0.238 | 0.236 | 0.394 | 0.431 | 0.312 | 0.25 | 0.209
LXF-289 | 0.769 | 0.759 | 0.715 | 0.694 | 0.64 | 0.518 | 0.494 | 0.494 | 0.418 | 0.175 | 0.951 | 0.699 | 0.709 | 0.6 | 0.293 | 0.71 | 0.684 | 0.695 | 0.557 | 0.64
NCI-H23 | 0.579 | 0.491 | 0.386 | 0.311 | 0.249 | 0.845 | 0.752 | 0.564 | 0.435 | 0.346 | 0.583 | 0.384 | 0.342 | 0.29 | 0.26 | 0.368 | 0.493 | 0.398 | 0.292 | 0.204
NCI-H522 |  |  |  |  |  | 0.617 | 0.698 | 0.65 | 0.599 | 0.563 | 0.66 | 0.709 | 0.725 | 0.584 | 0.615 | 0.802 | 0.834 | 0.739 | 0.68 | 0.696
NCI-H1395 |  |  |  |  |  | 0.444 | 0.398 | 0.428 | 0.436 | 0.348 | 0.622 | 0.545 | 0.494 | 0.517 | 0.413 | 1.25 | 0.966 | 0.946 | 0.862 | 0.967
NCI-H1563 | 0.841 | 0.81 | 0.853 | 0.813 | 0.888 | 0.631 | 0.696 | 0.655 | 0.637 | 0.577 | 0.725 | 0.777 | 0.721 | 0.641 | 0.62 |  |  |  |  | 
NCI-H1648 |  |  |  |  |  |  |  |  |  |  | 0.268 | 0.258 | 0.271 | 0.307 | 0.259 | 0.481 | 0.414 | 0.523 | 0.466 | 0.481
NCI-H1703 | 0.311 | 0.291 | 0.171 | 0.155 | 0.196 |  |  |  |  |  |  |  |  |  |  |  |  |  |  | 
NCI-H1793 |  |  |  |  |  | 0.357 | 0.371 | 0.354 | 0.194 | 0.267 | 0.254 | 0.326 | 0.204 | 0.215 | 0.216 | 0.426 | 0.37 | 0.342 | 0.381 | 0.339
NCI-H2342 |  |  |  |  |  | 0.676 | 0.649 | 0.491 | 0.487 | 0.399 | 0.634 | 0.542 | 0.631 | 0.564 | 0.448 | 0.778 | 0.968 | 0.803 | 0.547 | 0.65
SW 900 |  |  |  |  |  | 0.405 | 0.216 | 0.365 | 0.244 | 0.207 | 0.309 | 0.1 | 0.27 | 0.189 | 0.18 | 0.517 | 0.465 | 0.489 | 0.478 | 0.332
